In data set [1] the test system is CamWTC580Y, Cam3.IIC580Y and Cam3.IIRev strains. On the set-up: method as in PMID 25049252. To be noted: read-out: mean IC50 across Cambodian strains; cited from earlier work.
The subject of data set [2] is P. falciparum W2. On the set-up: method as in ref 1 and 2 (supplement; main text 47, 48). As to conditions: Table S1, ± SEM; ref 1 and 2 (supplement; main text 47, 48); cited from earlier work.
For data set [3], the system named is P. falciparum W2. Further details: method as in PMID 25049252. As to conditions: read-out: activity against W2; cited from earlier work.
The test system of the next data set is P. falciparum TM91-C235. On the set-up: method as in ref 5 (supplement; main text 63). To be noted: CQ and mefloquine resistant; ref 5 (supplement; main text 63); read-out: Antimalarial activities IC50 TM91-C235; cited from earlier work.
The subject of a further data set is P. falciparum TM-C2B. Further details: method as in ref 5 (supplement; main text 63). As to conditions: atovaquone and CQ resistant; ref 5 (supplement; main text 63); read-out: Antimalarial activities IC50 TM-C2B; cited from earlier work.
For another data set, the system named is murine cerebral malaria. On the set-up: method as in PMID 20691118. As to conditions: prescribed low dose levels; cited from earlier work.
Data set [4] deals with P. falciparum NF54. On the set-up: method as in ref 1 and 2 (supplement; main text 47, 48). As to conditions: Table S1, ± SEM; ref 1 and 2 (supplement; main text 47, 48); cited from earlier work.
Data set [5] concerns P. falciparum W2. Further details: method as in ref 5 (supplement; main text 63). To be noted: CQ resistant; ref 5 (supplement; main text 63); read-out: Antimalarial activities IC50 W2; cited from earlier work.
Another data set relates to P. falciparum 7G8. Further details: method as in ref 5 (supplement; main text 63). As to conditions: CQ resistant; ref 5 (supplement; main text 63); read-out: Antimalarial activities IC50 7G8; cited from earlier work.
Data set [6] relates to Chinese hamster ovary (CHO) cells. To be noted: read-out: Cytotoxicity EC50 CHO; MTT, ±SD; ref 1 and 2 (supplement; main text 47, 48); cited from earlier work.
The subject of the next data set is P. falciparum D6. Further details: method as in ref 5 (supplement; main text 63). As to conditions: CQ sensitive; ref 5 (supplement; main text 63); read-out: Antimalarial activities IC50 D6; cited from earlier work.
Another data set relates to P. falciparum TM93-C1088. Further details: method as in ref 5 (supplement; main text 63). As to conditions: atovaquone and CQ resistant; ref 5 (supplement; main text 63); read-out: Antimalarial activities IC50 TM93-C1088; cited from earlier work.
In data set [7] the test system is P. falciparum W2. Further details: method as in ref 4 (supplement; main text 62). As to conditions: Table S2, ± SEM; ref 4 (supplement; main text 62); read-out: Antimalarial activities IC50 W2; cited from earlier work.
The subject of data set [8] is P. falciparum K1. Further details: method as in ref 4 (supplement; main text 62). To be noted: Table S2, ± SEM; ref 4 (supplement; main text 62); read-out: Antimalarial activities IC50 K1; cited from earlier work.
The subject of data set [9] is P. falciparum K1. On the set-up: method as in ref 1 and 2 (supplement; main text 47, 48). To be noted: Table S1, ± SEM; ref 1 and 2 (supplement; main text 47, 48); cited from earlier work.
Data set [10] deals with P. falciparum NF54. Further details: method as in ref 4 (supplement; main text 62). To be noted: Table S2, ± SEM; ref 4 (supplement; main text 62); read-out: Antimalarial activities IC50 NF54; cited from earlier work.
On the set-up of data set [11]: method as in PMID 16444785, PMID 18559649. To be noted: female rats, cited from earlier work.
The test system of the next data set is HepG2. To be noted: read-out: Cytotoxicity EC50 HepG2; ref 2 (supplement; main text 48); cited from earlier work.
Data set [12] relates to liver stage P. berghei ANKA GFP-Luc-SMcon sporozoites. On the set-up: method as in ref 2 (supplement; main text 48). As to conditions: ref 2 (supplement; main text 48), cited from earlier work; for IC50: 48 h, ± SD.
Details of data set [13]: method as in PMID 16444785. To be noted: cited from earlier work.
The next data set has as its system W2 ring-stage parasites. On the set-up: method as in PMID 25288088. To be noted: not in a concentration-dependent manner; cited from earlier work.
In a further data set the test system is nonsevere malaria. On the set-up: method as in PMID 18559649, PMID 30902052, doi:10.4103/jpp.JPP_23_20. As to conditions: patients with nonsevere malaria; cited from earlier work.
Data set [14] in a line: Plasma protein binding (ultracentrifugation). To be noted: pooled plasma, human plasma, read-out: Plasma protein binding fu. Type of data set: in vitro ADME. As to the method:
(iii) Plasma protein binding. Plasma protein binding was measured using an ultracentrifugation method. The assay was performed using a 96-well microtiter plate with pooled human plasma spiked with the test compound (10 μM). […] This served as the total concentration sample. After preincubation at 37°C for 1 h, duplicate aliquots of the spiked plasma were transferred to ultracentrifugation tubes and ultracentrifuged for 4 h (216,937 × g, 37°C, Beckman Optima L-80XP). […] Sample extraction. […] LC-MS/MS analysis.

The conditions of data set [15]: cited from earlier work.
Another data set has as its system WI-38 HFLF. On the set-up: method as in ref 4 (supplement; main text 62). To be noted: Table S2; ref 4 (supplement; main text 62); read-out: Cytotoxicities IC50 WI-38 HFLF; cited from earlier work.
Data set [16] relates to late stage (IV-V) P. falciparum NF54 gametocytes. On the set-up: method as in ref 4 (supplement; main text 62). As to conditions: Table S4, n = 1; ref 4 (supplement; main text 62); read-out: Late stage IC50 (pLDH 72 + 72 h); cited from earlier work.

≈ marks a conversion by molar mass, not a printed value. Where “and” joins values, the source holds several entries; their conditions need not be identical. Equal entries are not always repeated. Where two headings read alike, the source gives them in different places.

Take `C[C@H]1[C@@H](O)O[C@@H]2O[C@@]3(C)CC[C@H]4[C@H](C)CC[C@@H]1[C@@]24OO3` [DHA 2, dihydroartemisinin]: the IC50 is 11.2 nM in data set [1]; 1.74 ± 0.22 nM with P. falciparum W2 [2]; 5.2 nM with P. falciparum W2 [3]; 2.3 ± 0.7 nM in the data set with P. falciparum TM91-C235; 2 ± 0.7 nM with P. falciparum TM-C2B; 2.51 ± 0.19 nM with P. falciparum NF54 [4]. Further, the IC50 in the data set with P. falciparum W2 [5] was 2.2 ± 0.8 nM; in the data set with P. falciparum 7G8, 1.3 ± 0.2 nM; in the data set with P. falciparum D6, 1.7 ± 0.4 nM; with P. falciparum TM93-C1088, 1.4 ± 0.4 nM; with P. falciparum W2 [7], 0.37 ± 0.11 nM; in the data set with P. falciparum K1 [8], 0.8 ± 0.5 nM. In addition, the IC50 in the data set on P. falciparum K1 [9] is 1.51 ± 0.33 nM; with P. falciparum NF54 [10], 0.57 ± 0.01 nM. The “Cure of murine cerebral malaria” value with murine cerebral malaria was “no cure”. The EC50 in data set [6] is 25.2 µM.
Turning to `C[C@H]1[C@H](N2CCS(=O)(=O)CC2)O[C@@H]2O[C@@]3(C)CC[C@H]4[C@H](C)CC[C@@H]1[C@@]24OO3` [Artemisone 6, artemisone], the IC50 in data set [1] is 2.4 nM; in the data set with P. falciparum W2 [2] it was 1.6 ± 0.4 nM; in the data set on P. falciparum W2 [3] it was 1.9 nM; with P. falciparum TM91-C235, 1.1 ± 0.5 nM; with P. falciparum TM-C2B it was 1.1 ± 0.4 nM; in the data set on P. falciparum NF54 [4], 1.2 ± 0.4 nM. In addition, the IC50 in the data set on P. falciparum W2 [5] is 1.3 ± 0.5 nM; in the data set on P. falciparum 7G8 it was 0.8 ± 0.1 nM; in data set [12] it was 28.3 nM; with P. falciparum D6, 1 ± 0.4 nM; in the data set on P. falciparum TM93-C1088 it was 0.7 ± 0.2 nM; with P. falciparum K1 [9] it was 1.01 ± 0.19 nM. Besides, the Cmax in data set [11] (single oral dose 3 mg/kg) was 35 µg/L; in data set [11] (single oral dose 10 mg/kg), 230 µg/L; in data set [11] (single oral dose 30 mg/kg) it was 850 µg/L. Besides, the elimination half-life is 10.8 min in [11] (single oral dose 3 mg/kg), 22.2 min in data set [11] (single oral dose 10 mg/kg) and 32.4 min in data set [11] (single oral dose 30 mg/kg). The figures for the EC50 (in the data set with HepG2; in data set [6]) were greater than 50 µM and greater than 249 µM, respectively. Also, the “Cure of murine cerebral malaria” value with murine cerebral malaria was “completely curative”. Further, in data set [12] (at 10 µM), the Maximum inhibition % was 93.35±1.76%. The Neurotoxicity entry in data set [13] is on record as “nonneurotoxic”. Also, in the data set on W2 ring-stage parasites, the “Induction of quiescence in W2 ring-stage parasites” value is “induce quiescence”. The “Cure in phase IIa trial” value in the data set on nonsevere malaria is given as “curative at one-third the dose level of artesunate”. The fraction unbound at 4 h, 10 µM in data set [14] was found to be 0.14. Further, in data set [15], the “aqueous solubility at pH 7.2” value was 89 mg/liter and 221.6 μM.
For the molecule `CO[C@H]1O[C@@H]2O[C@@]3(C)CC[C@H]4[C@H](C)CC[C@@H]([C@H]1C)[C@@]24OO3` [Artemether 3, artemether], the IC50 in data set [12] was greater than 104 nM; in data set [12] (listed as artemether), greater than 10000 nM; in the data set with P. falciparum W2 [7] it was 6.7 ± 0.6 nM; in the data set with P. falciparum K1 [8], 2.64 ± 0.18 nM; in the data set on P. falciparum NF54 [10], 1.86 ± 0.17 nM. In addition, the Maximum inhibition % in data set [12] (at 10 µM) is on record as 49.4%. In [14], the fraction unbound at 4 h, 10 µM came to 0.14. Further, the values for the aqueous solubility in data set [15] (25°C), in data set [15] and in data set [15] (variously recorded) were 0.0121 mg/mL (≈ 40.6 µM), 0.3 mg/mL (≈ 1010 µM) and less than 1 mg/mL, respectively. For the same molecule, the aqueous solubility rating result in data set [15] is reported as “insoluble”.
As to `C[C@H]1[C@H](N2CCSCC2)O[C@@H]2O[C@@]3(C)CC[C@H]4[C@H](C)CC[C@@H]1[C@@]24OO3` [Artemiside 5, artemiside], the IC50 with P. falciparum W2 [2] is 1.75 ± 0.27 nM; with P. falciparum NF54 [4] it was 1.11 ± 0.17 nM; in [12], 81.3 nM; with P. falciparum K1 [9], 1.6 ± 0.4 nM. The figures for the 50% effective concentration (EC50) (with HepG2; in data set [6]) were greater than 25 µM and greater than 271 µM, respectively. For the same molecule, the Maximum inhibition % in data set [12] (at 5 µM) is on record as 99.05±1.34%. Moreover, in data set [14], the fraction unbound at 4 h, 10 µM was 0.23. Moreover, the “aqueous solubility at pH 7.2” value in data set [15] was < 2 mg/liter and < 5.4 μM.
Take `C[C@H]1[C@H](N2C=CS(=O)(=O)CC2)O[C@@H]2O[C@@]3(C)CC[C@H]4[C@H](C)CC[C@@H]1[C@@]24OO3` [M1 12]: the IC50 in the data set on P. falciparum TM91-C235 was 5 ± 0.6 nM; in the data set with P. falciparum TM-C2B, 8.6 ± 8.2 nM; with P. falciparum W2 [5], 6.6 ± 0.4 nM; in the data set on P. falciparum 7G8, 2.6 ± 0.8 nM; in the data set on P. falciparum D6, 4.7 ± 0.2 nM; in the data set with P. falciparum TM93-C1088, 2.5 ± 0.4 nM. Also, the “Induction of quiescence in W2 ring-stage parasites” value with W2 ring-stage parasites was “induce quiescence”. Moreover, in [14], the fraction unbound at 4 h, 10 µM is 0.25.
For the molecule `C[C@H]1[C@H](NS(N)(=O)=O)O[C@@H]2O[C@@]3(C)CC[C@H]4[C@H](C)CC[C@@H]1[C@@]24OO3` [Sulfamide 7], the results for the IC50 in the data set on P. falciparum W2 [2], with P. falciparum NF54 [4] and in the data set with P. falciparum K1 [9] were 2.04 ± 0.11 nM, 3 ± 1 nM and 1.78 ± 0.26 nM, respectively. Also, the 50% effective concentration (EC50) in [6] is 56 ± 4.6 µM. Moreover, the fraction unbound at 4 h, 10 µM in data set [14] came out at 0.17. The “aqueous solubility at pH 7.2” value in data set [15] was 294 mg/liter and 811 μM.
`C[C@@H]1CC[C@H]2[C@@H](C)C(=O)N[C@@H]3O[C@@]4(C)CC[C@@H]1[C@]32OO4` [11-Aza-artemisinin 11, 11-aza-artemisinin]: the IC50 was greater than 100 µM with WI-38 HFLF; 6.02 ± 1.81 nM in the data set with P. falciparum W2 [7]; 9.44 ± 2.93 nM in the data set on P. falciparum K1 [8]; 10.5 ± 1.36 nM with P. falciparum NF54 [10]; 622 nM in data set [16]. Besides, the fraction unbound at 4 h, 10 µM in data set [14] is 0.13.
As to `C[C@H]1[C@H](N2CCN(C(=O)Nc3ccc(F)cc3)CC2)O[C@@H]2O[C@@]3(C)CC[C@H]4[C@H](C)CC[C@@H]1[C@@]24OO3` [Arylurea 10], the IC50 with P. falciparum W2 [2] was 1.16 ± 0.17 nM; with P. falciparum NF54 [4], 1.3 ± 0.1 nM; in [12], 106 nM; with P. falciparum K1 [9] it was 0.85 ± 0.1 nM. Moreover, the results for the concentration giving a half-maximal response (EC50) (in the data set on HepG2; in data set [6]) were 5.16 µM and 204 µM, respectively. In addition, the Maximum inhibition % in data set [12] (at 10 µM) is given as 94.85±2.76%. Further, the fraction unbound at 4 h, 10 µM in data set [14] came to 0.02.

One may read the EC50 as the concentration giving half of the maximal effect. For orientation: Cmax means the peak of the concentration-time curve. What is called aqueous solubility is the concentration that dissolves in the medium under given conditions.

These data come from paper PMC8284440, “Toward New Transmission-Blocking Combination Therapies: Pharmacokinetics of 10-Amino-Artemisinins and 11-Aza-Artemisinin and Comparison with Dihydroartemisinin and Artemether” (Antimicrobial Agents and Chemotherapy, 2021).
